Holding throughout (format): cell-based, human
Experiment [1] concerns HuH-7 cells. Description: Growth inhibitory effect on cancer cells (WST assay), Example 2.3. To be noted: for IC50: HuH-7 cells, WST assay, concentrations 0-50 μM, control 0.1% DMSO; for IC50 compared with IC-2: comparison with IC-2. On the procedure:
HuH-7 cells, a human liver cancer cell line, were cultured on 10-cm cell culture dishes (TPP Techno Plastic Products AG, Trasadingen, Switzerland) by using DMEM under conditions at 5% CO2, 37° C., and 100% humidity. When the cells were 70 to 90% confluent, 200 μL of 0.25% Trypsin/1 mM EDTA solution, which had been prepared by diluting the stock solution 10-fold with PBS (−), was added to detach the cells. Then, the cells were centrifuged at 1000 rpm for 3 min at room temperature. The cells recovered were subcultured at a 1:4 split ratio.
First, 70 to 90% confluent HuH-7 cells were harvested and seeded (n=3) at 5×10^3 cells/well of a 96-well plate (TPP). After 24 h, each compound was added to the cells and the mixture was cultured at 37° C. The concentrations of each compound were 0, 10, 20, 30, 40, and 50 μM. For IC-2-506-1, however, the concentrations used were 0, 10, 20, 25, 30, 40, and 50 μM. Each control sample (0 μM) used was 0.1% DMSO, a solvent for each compound.
Next, 0, 24, 48, and 96 h after the compound treatment, 100 μIL of DMEM-diluted 10% Cell Counting Kit-8 (DOJINDO LABORATORIES, Kumamoto) was added. The mixture was incubated at 37° C. for 60 min and its absorbance (at a measurement wavelength of 450 nm/control wavelength of 600 nm) was measured by using a Sunrise Rainbow RC (Tecan Group Ltd., Mannedorf, Switzerland). Absorbance for the cells alone was calculated by subtracting, from the reading obtained, absorbance for 10% Cell Counting Kit-8 alone.
The “*” in figures indicates a significant difference of p<0.05 between 0.1% DMSO and each compound; and the “**” indicates a significant difference of p<0.01 (the same applies to all the figures in Examples).

Experiment [2] relates to Wnt/β-catenin signaling. Description: Inhibitory effect on Wnt/β-catenin signaling in liver stellate cells (LX-2, TCF4 luciferase). To be noted: concentration equal to or lower than that of IC-2. On the procedure:
While each compound was added at concentrations where the cell growth of fibrosis-causing liver stellate LX-2 cells was reduced to about 50 to 80%, Wnt/β-catenin signaling activity was measured. […] The concentrations of the respective compounds were as described in FIG. 41. Each control sample used was 0.1% DMSO, a solvent for each compound.
LX-2 cells, which were cultured and maintained by using 10% FBS/DMEM, were harvested and seeded (n=3) in 1% FBS/DMEM at 4.0×10^4 cells per well of a 24-well plate. Next, 25 μL of Opti-MEM (Gibco, Life Technologies Corp., Carlsbad, Calif.) containing 50 ng of pTCF4-CMVpro-GL4.20, having 3 copies of TCF motifs (CCT TTG ATC) upstream of a CMV promoter in a multiple cloning site of pGL4.20 (Promega), and 5 ng of pRL-CMV Vector (Promega) and 25 μL of Opti-MEM containing 0.4 μL of Lipofectamine 2000 (Invitrogen, Life Technologies Corp., Carlsbad, Calif.) were mixed and incubated at room temperature for 20 min. At 20 h after the cell seeding, the mixture was added to each well, so that both reporter plasmids were transiently transfected into the cells. After additional 4 h, 2.5 ng/mL of TGF-β and each compound were added to the cells and the mixture was cultured at 37° C.
At 24 and 48 h after the compound treatment, the culture medium was discarded, and 100 μL of room temperature 5×Passive Lysis Buffer (PLB), which had been diluted 5-fold with MilliQ water, was added to each well. Next, the plate was shaken at room temperature for 15 min and was then frozen at −30° C. overnight. A Luciferase Assay Substrate was diluted with 10 mL of room temperature Luciferase Assay Buffer II to prepare Luciferase Assay Reagent II (LARII). Then, 1 μL of Stop&Glo Substrate was diluted with 49 μL of room temperature Stop&Glo Buffer to prepare Stop&Glo (Promega) in a quantity enough for samples.
The frozen PLB lysate samples were thawed and permeabilized for 15 min. After that, 50 μl aliquots of LARII were dispensed into 3.5 mL test tubes (Sarstedt, AG & Co., Numbrecht, Germany) and 10 μL of each frozen PLB lysate sample was added and mixed well. Subsequently, luminescence was quantified by using a MiniLumat LB 9506 (Berthold Technologies GmbH & Co, Bad Wildbad, Germany) to measure firefly luciferase activity. After the measurement, 50 μL of Stop&Glo was added and mixed well and luminescence was then quantified by using the MiniLumat LB 9506 to determine Renilla luciferase activity. The measurement results were obtained by dividing the firefly luciferase activity by the Renilla luciferase activity.

For experiment [3], the system named is Wnt/β-catenin signaling. Kind of experiment: Inhibitory effect on Wnt/β-catenin signaling in mesenchymal stem cells (E7-TCF4 luciferase). Particulars: for inhibitory effect on Wnt/β-catenin signaling in mesenchymal stem cells: E7-TCF4 cells, day 8 after compound addition, compared with control 0.1% DMSO; for inhibitory effect on Wnt/β-catenin signaling pathway in mesenchymal stem cells compared with IC-2: concentration equal to or lower than that of IC-2. As for the experimental part:
A pTCF4-CMVpro-GL4.20 plasmid vector, having 3 copies of TCF4 motifs (CCT TTG ATC) upstream of aCMV promoter in a multiple cloning site of pGL4.20 (Promega Corp., Fitchburg, Wis.), was linearized and stably transfected into UE7T-13 cells to prepare E7-TCF4 cells. Also, a pCMVpro-GL4.20 plasmid vector, having a CMV promoter in a multiple cloning site of pGL4.20, was linearized and stably transfected into UE7T-13 cells. The resulting stable cells (E7-CMV cells) were cultured, like UE7T-13 cells, in 10% FBS/DMEM containing 0.25 μg/mL puromycin.
UE7T-13 cells were used to measure Wnt/β-catenin signaling activity. The concentrations of the respective compounds were as described in FIG. 42. Each control sample used was 0.1% DMSO, a solvent for each compound.
First, 70 to 90% confluent E7-TCF4 cells and E7-CMV cells were harvested and seeded (n=3) at 1.6758×10^4 cells/well of a 24-well plate (9.0×10^3 cells/cm^2). One day after that, each compound was added to the cells and the mixture was cultured at 37° C. Day 4 after the compound addition, the culture medium was changed.
At day 1, 4, or 8 after the compound treatment, the culture medium was discarded, and 100 μL of room temperature 5×Passive Lysis Buffer (PLB), which had been diluted 5-fold with MilliQ water, was added to each well. Next, the plate was shaken at room temperature for 15 min and was then frozen at −30° C. overnight. A Luciferase Assay Substrate was diluted with 10 mL of room temperature Luciferase Assay Buffer II to prepare Luciferase Assay Reagent II (LARII). The frozen PLB lysate samples were thawed and permeabilized for 15 min. Then, 10 μL aliquots were added to wells of a 96-well white plate. While 50 μL aliquots of LARII were each added to each well, luminescence was quantified by using a 1420 multi-label counter ARVO MX to determine firefly luciferase activity.

For experiment [4], the system named is LX-2 cells. Description: Anti-fibrosis effect, summary statements on Example 3 (marker not specified). Particulars: for anti-fibrosis effect compared with IC-2, equal or higher concentration: concentration equal to or higher than that of IC-2. The text has this: α-Smooth muscle actin (α-SMA), a fibrosis marker, was used as an indicator, and RNA was collected from LX-2 cells treated with each low-molecular-weight compound. Next, an inhibitory effect on fibrosis was examined by real-time RT-PCR.
In addition, instead of α-SMA, another fibrosis marker collagen, type I, alpha 1 (COL1A1) was used as an indicator, and substantially the same protocol was repeated. The concentrations of each compound used were as described in FIG. 34. Each control sample used was 0.1% DMSO, a solvent for each compound. Here, COL1A1 primers used were 5′-CCT CCA GGG CTC CAA CGA G-3′ and 5′-TCAATCACTGTCTTGCCCCA-3′. The annealing was performed at 58° C. for 5 sec. The measurement results were obtained by dividing the calculated value for the COL1A1 gene by the calculated value for the GAPDH gene.

Experiment [5] deals with Wnt/β-catenin signaling. Kind of experiment: Inhibitory effect on Wnt/β-catenin signaling in liver cancer cells (HuH7-TCF4 luciferase). To be noted: concentration equal to or lower than that of IC-2. As for the experimental part:
A pTCF4-CMVpro-GL4.20 plasmid vector, which had been constructed by inserting 3 copies of TCF4 motifs (CCT TTG ATC) upstream of a CMV promoter into a multiple cloning site of pGL4.20 (Promega Corp., Fitchburg, Wis.), was linearized and stably transfected into the HuH-7 cells. The resulting stable cells (HuH7-TCF4 cells) and HuH-7 cells were likewise cultured.
While each compound was added at concentrations where the growth of HuH-7 cells was reduced to about 50% or less, Wnt/β-catenin signaling activity was measured. The concentrations of the respective compounds were as described in FIG. 40. Control samples used were 0.1% DMSO, a solvent for each compound, and 0.5 μM 5-FU.
First, 70 to 90% confluent HuH7-TCF4 cells were harvested and seeded (n=3) at 5.0×10^4 cells/well of a 24-well plate (TPP). After 24 h, each compound was added to the cells and the mixture was cultured at 37° C.
At 48 h after the compound treatment, the culture medium was discarded, and 100 μL of room temperature 5×Passive Lysis Buffer (PLB) (Promega Corp., Fitchburg, Wis.), which had been diluted 5-fold with MilliQ water, was added to each well. Next, the plate was shaken at room temperature for 15 min and was then frozen at −30° C. overnight. A Luciferase Assay Substrate was diluted with 10 mL of room temperature Luciferase Assay Buffer II to prepare Luciferase Assay Reagent II (LARII) (Promega). The frozen PLB lysate samples were thawed and permeabilized for 15 min. Then, 10 μL aliquots were added to wells of a 96-well white plate (Corning Inc., Corning, N.Y.). While 50 μL aliquots of LARII were each added to each well, luminescence was quantified by using a 1420 multi-label counter ARVO MX (PerkinElmer Singapore Pte Ltd., Singapore) to determine firefly luciferase activity. Note that a significant difference was evaluated by using (two-tailed) Student's t-test. The “*” in figures indicates a significant difference of p<0.05 between 0.1% DMSO and each compound; and the “**” indicates a significant difference of p<0.01 (the same applies to all the figures in Examples).

We go through nine compounds from patent US10597398B2, “Suppression and regeneration promoting effect of low molecular weight compound on cancer and fibrosis” (NATIONAL UNIVERSITY CORPORATION TOTTORI UNIVERSITY, priority 2015, dated 2020).

`O=C1C(Cc2ccccc2)N2C(=O)CCN(c3ccccc3[N+](=O)[O-])C2CN1Cc1cccc2ccccc12` (stereo not drawn) [Compound 7c-NT]: in experiment [1], it took 36.1 µM to reach half-maximal inhibition (IC50). In experiment [2], the “inhibitory effect on Wnt/β-catenin signaling pathway in liver stellate cells compared with IC-2” value is reported as “more potent inhibitory effect”. In experiment [3], the “inhibitory effect on Wnt/β-catenin signaling in mesenchymal stem cells” value is “all the compounds except for IC-2-Ar-OMe, 9b, and 7c-NT exhibited a significant inhibitory effect”.

`O=C1C(Cc2ccccc2)N2C(=O)CCN(C(=O)NCc3ccccc3)C2CN1Cc1cccc(Cl)c1Cl` (stereo not drawn) [IC-2-506-1]: in experiment [1], the IC50 turned out to be 14.1 µM and the “IC50 compared with IC-2” value is on record as “lower IC50 than IC-2”. Also, in experiment [1] (at a concentration lower than that of IC-2), the “anti-tumor effect compared with IC-2” value is “more potent anti-tumor effect”. For the same compound, the “anti-fibrosis effect compared with IC-2, equal or higher concentration” value in experiment [4] is on record as “more potent anti-fibrosis effect”. Besides, the “inhibitory effect on Wnt/β-catenin signaling pathway in liver cancer cells compared with IC-2” value in experiment [5] is recorded as “more potent inhibitory effect”. Moreover, the “inhibitory effect on Wnt/β-catenin signaling pathway in liver stellate cells compared with IC-2” value in experiment [2] is on record as “more potent inhibitory effect”.

As for `O=C1C(Cc2ccccc2)N2C(=O)CCN(C(=O)NCc3ccccc3)C2CN1Cc1ccc(Cl)c(Cl)c1` (stereo not drawn) [IC-2-506-3], in experiment [1], the midpoint of inhibition, the IC50, lay at 18.3 µM and the “IC50 compared with IC-2” value is “lower IC50 than IC-2”. Further, the “anti-fibrosis effect compared with IC-2, lower concentration” value in experiment [4] (concentration even lower than that of IC-2) is given as “more potent anti-fibrosis effect”. Moreover, the “inhibitory effect on Wnt/β-catenin signaling pathway in liver stellate cells compared with IC-2” value in experiment [2] is reported as “more potent inhibitory effect”.

Consider `COc1ccc(CN2CC3N(C(=O)NCc4ccccc4)CCC(=O)N3C(Cc3ccccc3)C2=O)cc1` (stereo not drawn) [IC-2-Ar-OMe], for which, in experiment [3], the “inhibitory effect on Wnt/β-catenin signaling in mesenchymal stem cells” value is “all the compounds except for IC-2-Ar-OMe, 9b, and 7c-NT exhibited a significant inhibitory effect”.

With `O=C1C(Cc2ccccc2)N2C(=O)CCN(C(=O)NCc3ccccc3)C2CN1Cc1ccc(Cl)cc1` (stereo not drawn) [IC-2-Ar—Cl], the midpoint of inhibition in experiment [1], the IC50, lay at 45.1 µM. The “anti-fibrosis effect compared with IC-2, equal or higher concentration” value in experiment [4] was “more potent anti-fibrosis effect”. The “inhibitory effect on Wnt/β-catenin signaling pathway in liver cancer cells compared with IC-2” value in experiment [5] was “more potent inhibitory effect”. In addition, the “inhibitory effect on Wnt/β-catenin signaling pathway in mesenchymal stem cells compared with IC-2” value in experiment [3] was “more potent inhibitory effect”.

Consider `O=C1C(Cc2ccccc2)N2C(=O)CCN(C(=O)NCc3ccccc3)C2CN1Cc1ccc([N+](=O)[O-])cc1` (stereo not drawn) [IC-2-Ar—NO2], for which the “inhibitory effect on Wnt/β-catenin signaling pathway in mesenchymal stem cells compared with IC-2” value in experiment [3] is on record as “more potent inhibitory effect”.

Compound `O=C1C(Cc2ccccc2)N2C(=O)CCN(C(=O)NCc3ccc(O)cc3)C2CN1Cc1cccc2ccccc12` (stereo not drawn) [IC-2-OH] returned an IC50 in experiment [1] of 33.5 µM. Besides, the “anti-fibrosis effect compared with IC-2, equal or higher concentration” value in experiment [4] is listed as “more potent anti-fibrosis effect”. Besides, the “inhibitory effect on Wnt/β-catenin signaling pathway in liver cancer cells compared with IC-2” value in experiment [5] was “more potent inhibitory effect”.

On to `COCOc1ccc(CNC(=O)N2CCC(=O)N3C(Cc4ccccc4)C(=O)N(Cc4cccc5ccccc45)CC23)cc1` (stereo not drawn) [IC-2-OMOM], for which, in experiment [1], the midpoint of inhibition, the IC50, lay at 20.3 µM and the “IC50 compared with IC-2” value is “lower IC50 than IC-2”. The “inhibitory effect on Wnt/β-catenin signaling pathway in liver cancer cells compared with IC-2” value in experiment [5] is “more potent inhibitory effect”.

`COc1ccc(CNC(=O)N2CCC(=O)N3C(Cc4ccccc4)C(=O)N(Cc4cccc5ccccc45)CC23)cc1` (stereo not drawn) [IC-2-OMe]: in experiment [1], the IC50 is 34.9 µM. The “inhibitory effect on Wnt/β-catenin signaling pathway in liver cancer cells compared with IC-2” value in experiment [5] is on record as “more potent inhibitory effect”.

What is called IC50 is the midpoint of a concentration-inhibition curve.
